# Test results taken from patent US8049012B2, “3-aza-spiro[5.5]undecane derivatives and their use as monoamine neurotransmitter re-uptake inhibitors” (Neurosearch A/S, priority 2005, dated 2011).
# How the values were obtained:
# [1] = molecular target: T1, reuptake of dopamine (DA) in synaptosomes (Rattus norvegicus, UniProt P23977); assay: Inhibition of 3H-DA reuptake in synaptosomes; format: biochemical; details: as described in WO 97/16451, read-out: DA-uptake IC50
# T1 construct: in synaptosomes as described in WO 97/16451; from tissue
# T1 sequence (P23977 whole entry): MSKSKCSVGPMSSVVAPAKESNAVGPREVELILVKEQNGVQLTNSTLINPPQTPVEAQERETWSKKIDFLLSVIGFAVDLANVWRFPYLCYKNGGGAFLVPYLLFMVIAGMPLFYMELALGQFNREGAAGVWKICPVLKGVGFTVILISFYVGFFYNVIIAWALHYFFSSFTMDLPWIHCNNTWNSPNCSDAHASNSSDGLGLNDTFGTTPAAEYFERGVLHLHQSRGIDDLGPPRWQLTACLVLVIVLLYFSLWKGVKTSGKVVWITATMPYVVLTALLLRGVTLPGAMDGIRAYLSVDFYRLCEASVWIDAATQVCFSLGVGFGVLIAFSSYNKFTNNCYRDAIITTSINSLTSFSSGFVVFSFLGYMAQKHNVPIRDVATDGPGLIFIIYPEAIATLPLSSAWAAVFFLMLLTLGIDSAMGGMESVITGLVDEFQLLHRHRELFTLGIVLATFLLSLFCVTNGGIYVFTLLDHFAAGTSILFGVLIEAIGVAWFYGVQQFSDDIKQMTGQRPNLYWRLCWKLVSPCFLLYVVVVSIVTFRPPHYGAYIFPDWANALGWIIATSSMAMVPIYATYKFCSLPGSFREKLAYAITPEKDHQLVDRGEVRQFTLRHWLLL
# Experimental: (§1) A number of compounds were tested for their ability to inhibit the reuptake of the monoamine neurotransmitters dopamine (DA) noradrenaline (NA) and serotonine (5-HT) in synaptosomes as described in WO 97/16451.
# (§2) The test values are given as IC50 (the concentration (μM) of the test substance which inhibits the specific binding of ^3H-DA, ^3H-NA, or ^3H-5-HT by 50%).
# [2] = molecular target: T2, reuptake of serotonine (5-HT) in synaptosomes (Rattus norvegicus, UniProt P31652); assay: Inhibition of 3H-5-HT reuptake in synaptosomes; format: biochemical; details: as described in WO 97/16451, read-out: 5-HT-uptake IC50
# T2 construct: in synaptosomes as described in WO 97/16451; from tissue
# T2 sequence (P31652 whole entry): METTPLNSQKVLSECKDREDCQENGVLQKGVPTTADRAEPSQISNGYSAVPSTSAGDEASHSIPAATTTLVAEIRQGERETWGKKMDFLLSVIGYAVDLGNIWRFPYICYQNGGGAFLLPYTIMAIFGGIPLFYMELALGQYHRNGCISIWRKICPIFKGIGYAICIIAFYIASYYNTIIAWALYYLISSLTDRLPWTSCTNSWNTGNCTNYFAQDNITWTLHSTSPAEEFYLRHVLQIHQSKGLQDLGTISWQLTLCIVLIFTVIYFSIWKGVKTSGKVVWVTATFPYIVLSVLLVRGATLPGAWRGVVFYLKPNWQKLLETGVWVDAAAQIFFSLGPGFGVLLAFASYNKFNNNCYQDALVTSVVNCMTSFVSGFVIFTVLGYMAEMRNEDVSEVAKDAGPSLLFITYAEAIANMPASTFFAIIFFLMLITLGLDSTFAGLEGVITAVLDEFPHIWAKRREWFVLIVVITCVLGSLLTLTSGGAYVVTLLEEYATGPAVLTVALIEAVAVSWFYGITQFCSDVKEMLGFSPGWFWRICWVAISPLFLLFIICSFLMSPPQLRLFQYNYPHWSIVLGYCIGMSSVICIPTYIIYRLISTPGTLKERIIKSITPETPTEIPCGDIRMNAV
# Experimental: as §1, §2
IC50 [1],IC50 [2],melting point,Compound
490 nM,2.3 nM,128 to 132 °C,"Clc1ccc(NC2CCC3(CCNCC3)CC2)cc1Cl [2nd last compound of method A, (3-Aza-spiro[5.5]undec-9-yl)-(3,4-dichloro-phenyl)-amine]"
1200 nM,2 nM,126 to 128 °C,"O=c1ccc2ccc(OC3CCC4(CCNCC4)CC3)cc2o1 [3rd compound of method A, 7-(3-Aza-spiro[5.5]undec-9-yloxy)-chromen-2-one]"
